One assay relates to model diatoms. The following applies: cited from earlier work.
In assay [1] the test system is freshwater diatom Encyonema minutum var. pseudogracialis (Em). Put plainly: Lethality experiments on diatom Em in 96-well plates, live/dead count by Neutral Red vital staining. The assay is classed as cell-based. The settings on record: 10 μM TDD alone; ~24 hours, 20° C.; n=3.
Protocol: Em was maintained and tested at BMI in a modified filter-sterilized CR1-S algal medium with no soil particles so as to improve visualization and counting speed and accuracy.
All experiments were conducted in untreated polystyrene 96-well plates. Total liquid volume added to each well was 200 μL for all assays. At the start of each experiment, a conical tube of diatom Em was split into two and given fresh media (1:1 algae:media), then examined under a microscope to confirm vitality.
Lethality experiments were conducted with 6 different commercial algicides (AlgaeFix™, DINO X, Aquathol® K, Cutrine® Plus, GreenClean® PRO, and Hydrothol® 191 Granular) and two infochemicals (trans,trans-2,4-decadienal [TDD] and cholesterol-3-sulfate [C3S]). Fresh 50 mM or 25 mM stock solutions of each infochemical were prepared in DMSO immediately prior to each experiment. […]
Following incubation, 1.5 μL of filtered Neutral Red (0.8 g in 25 mL DI) for every 100 μL of solution (3 μL for 200 μL) was added to each well. […] A different staff member counted cells in 5 μL from each well using a hemocytometer under a microscope; this second staff member was not told which treatments were in which wells, so as to maintain single-blind data collection. Total cells were counted, along with live/dead characterization via Neutral Red vital cell staining, and time of well count completion.

For `CC(C)CCC[C@@H](C)[C@H]1CC[C@H]2[C@@H]3CC=C4C[C@@H](OS(=O)(=O)O)CC[C@]4(C)[C@H]3CC[C@]12C` [C3S, cholesterol-3-sulfate, reference compound], in the assay on model diatoms, the “Level leading to programmed-cell-death / cell death” value is listed as “micromolar levels”.
With `CCCCC/C=C/C=C/C=O` [TDD, trans,trans-2,4-decadienal], in assay [1], the “Single treatment: lethality above negative control” value amounted to 6.7%. In addition, the “Level leading to programmed-cell-death / cell death” value in the assay with model diatoms was “micromolar levels”.
